Measured values from patent publication US6787327B2, “Methods for determining tyrosine-DNA phosphodiesterase activity” (Kelk Graduate of Applied Life Sciences, priority 2001, dated 2004).

Biological target: HTDPNΔ1-39 (recombinant human TDP) (Homo sapiens, UniProt Q9NUW8)
Details: manganese chloride 5 mM or 10 mM; 5 mM substrate, 5 μg protein; absorbance at 415 nm; FIG. 7
Excerpt: In these assays, a chromogenic enzymatic assay system is used. In these systems, a substrate of smaller molecular weight (i.e., as compared with other substrates) containing one single base of thymidine, with chromogenic para-nitrophenyl group attached to the 3′-hydroxy group of deoxyribose was chosen. This compound mimics the aromatic groups of tyrosine in topo I-DNA complexes.
Upon the cleavage of the phosphodiester bond by TDP, the p-nitrophenol group mimicking the tyrosine residue in topo I-DNA complexes is released. The concentration of this group (i.e., a chromogen) is determined using spectroscopy. Thus, in this Example, enzymatic reactions contained 100 mM Tris HCl, pH 8.5, 100 mM NaCl, 1 mM DTT, 5 mM para-nitrophenyl thymidine-3′-phosphate and 5 μg of purified protein in a volume of 200 μl. For these reactions, 96-well plates were used. The amount of cleaved product (p-nitrophenol) was assessed by determining its absorbance at 415 nm (Ultramark Microplate Imaging System, BioRad).
During the development of this assay system, it was determined that the system may be optimized by the inclusion of manganese cation in the assay. […] Upon incubation of various TDP mutants and the substrate (para-nitrophenyl-thymidine-3′-phosphate) in the presence of manganese cations, the concentrations of the resulting para-nitrophenynol were calculated based on the optical density measured at 415 nm. […]

Chain of HTDPNΔ1-39 (recombinant human TDP) (Q9NUW8 40-608, stated change not applied): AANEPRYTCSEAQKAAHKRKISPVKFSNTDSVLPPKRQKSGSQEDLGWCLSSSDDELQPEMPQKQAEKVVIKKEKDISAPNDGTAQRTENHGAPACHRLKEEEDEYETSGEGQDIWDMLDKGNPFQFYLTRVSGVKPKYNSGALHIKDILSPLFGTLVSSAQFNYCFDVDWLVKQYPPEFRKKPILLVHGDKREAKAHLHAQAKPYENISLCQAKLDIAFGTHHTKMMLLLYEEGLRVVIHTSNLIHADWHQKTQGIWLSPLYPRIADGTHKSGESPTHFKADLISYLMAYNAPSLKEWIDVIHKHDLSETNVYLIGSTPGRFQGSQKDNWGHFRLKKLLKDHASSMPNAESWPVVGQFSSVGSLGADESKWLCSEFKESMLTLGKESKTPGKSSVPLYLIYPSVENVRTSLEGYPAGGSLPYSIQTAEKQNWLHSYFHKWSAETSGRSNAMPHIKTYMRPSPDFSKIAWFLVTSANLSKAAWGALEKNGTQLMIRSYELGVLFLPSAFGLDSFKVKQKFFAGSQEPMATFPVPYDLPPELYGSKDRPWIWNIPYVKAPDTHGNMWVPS

manganese chloride
increase of enzymatic activity on para-nitrophenyl thymidine-3′-phosphate, as compared to the activity in the presence of magnesium: 7 fold
increase of enzymatic activity on para-nitrophenyl thymidine-3′-phosphate, as compared with the activity in the absence of cations: 17 fold
